Measurements reported in patent publication US20220298138A1, “ENZYME INHIBITORS” (KALVISTA PHARMACEUTICALS LIMITED, priority 2019, published 2022).

Molecular target: T1, Human Factor XIIa (Homo sapiens, UniProt P00748)
T1 construct: purchased Enzyme Research Laboratories
T1 sequence (P00748 373-615 limits assumed): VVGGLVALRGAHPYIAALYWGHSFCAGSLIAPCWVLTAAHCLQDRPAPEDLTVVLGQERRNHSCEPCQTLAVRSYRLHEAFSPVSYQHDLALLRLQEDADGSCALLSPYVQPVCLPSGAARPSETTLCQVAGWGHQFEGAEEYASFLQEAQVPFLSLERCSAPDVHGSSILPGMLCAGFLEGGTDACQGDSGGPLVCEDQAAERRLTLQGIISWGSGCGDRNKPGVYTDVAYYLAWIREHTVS
Assay: Factor XIIa inhibitory activity in vitro (fluorogenic substrate H-DPro-Phe-Arg-AFC)
Assay type: biochemical
Conditions: 25° C., class symbols, read-out: Human FXIIa IC50
Summary of the method: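 Enzyme incubated at 25° C with fluorogenic substrate H-DPro-Phe-Arg-AFC and a range of compound concentrations. Residual activity taken as initial reaction rate from […], giving IC50.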

Row | IC50 [µM] | Compound
1 | 10 to 40 | C[C@@H](C(=O)N[C@@H](Cc1ccc(F)c(F)c1)C(=O)NCc1ccc2c(N)nccc2c1)N(C)C [Example 5.104]
2 | 0.28 to 1 | C[C@@H]1CCC[C@H](C)N1[C@H](C)C(=O)N[C@@H](Cc1ccc(F)c(F)c1)C(=O)NCc1ccc2c(N)nccc2c1 [Example 5.105]
3 | 3 to 10 | C[C@@H]1CCC[C@H](C)N1[C@@H](C)C(=O)N[C@@H](Cc1ccc(F)c(F)c1)C(=O)NCc1ccc2c(N)nccc2c1 [Example 5.106]
4 | 10 to 40 | CC(C)(C)OC(=O)N[C@H](CCc1ccccc1)C(=O)NCC(=O)NCc1ccc2c(N)nccc2c1 [Example 6.01]
5 | 0.28 to 1 | Nc1nccc2cc(CNC(=O)CNC(=O)[C@H](N)CCc3ccccc3)ccc12 [Example 6.02]
6 | 10 to 40 | CC(C)(C)OC(=O)N[C@H](CCc1ccccc1)C(=O)NC(C)(C)C(=O)NCc1ccc2c(N)nccc2c1 [Example 6.03]
7 | 10 to 40 | CC[C@H](NC(=O)[C@@H](CCc1ccccc1)NC(=O)OC(C)(C)C)C(=O)NCc1ccc2c(N)nccc2c1 [Example 6.04]
8 | 1 to 3 | CC[C@H](NC(=O)[C@H](N)CCc1ccccc1)C(=O)NCc1ccc2c(N)nccc2c1 [Example 6.05]
9 | 0.28 to 1 | CC(C)(NC(=O)[C@H](N)CCc1ccccc1)C(=O)NCc1ccc2c(N)nccc2c1 [Example 6.06]
10 | 0.28 to 1 | CC(C)N[C@H](CCc1ccccc1)C(=O)NCC(=O)NCc1ccc2c(N)nccc2c1 [Example 6.07]
11 | 3 to 10 | CN[C@H](CCc1ccccc1)C(=O)N[C@@H](Cc1ccccc1)C(=O)NCc1ccc2c(N)nccc2c1 [Example 6.08]
12 | 10 to 40 | C[C@H](NC(=O)[C@@H](CCc1ccccc1)NC(=O)c1ccccc1)C(=O)NCc1ccc2c(N)nccc2c1 [Example 6.26]
13 | 3 to 10 | CC(C)N[C@H](CCc1ccccc1)C(=O)N[C@@H](C)C(=O)NCc1ccnc(N)c1 [Example 9.09]
14 | 3 to 10 | CC(C)N[C@H](CCc1ccccc1)C(=O)N[C@@H](C)C(=O)NCc1ccc(CN)cc1 [Example 9.10]
15 | 10 to 40 | COc1ccc(CNC(=O)[C@H](C)NC(=O)[C@@H](CCc2ccccc2)NC(C)C)cc1Cl [Example 9.11]
16 | 10 to 40 | CC(C)N[C@H](CCc1ccccc1)C(=O)N[C@@H](C)C(=O)NCCc1ccnc(N)c1 [Example 9.12]
17 | 10 to 40 | C[C@H](NC(=O)[C@@H](CCc1ccccc1)NS(C)(=O)=O)C(=O)NCc1ccc2[nH]cc(Cl)c2c1 [Example 9.16]
18 | 3 to 10 | C[C@H](NC(=O)[C@@H](CCc1ccccc1)NC1CCOCC1)C(=O)NCc1ccc2[nH]cc(Cl)c2c1 [Example 9.17]
19 | 0.28 to 1 | C[C@H](NC(=O)[C@@H](CCc1ccccc1)NCC(C)(C)C)C(=O)NCc1ccc2[nH]cc(Cl)c2c1 [Example 9.18]
20 | 10 to 40 | CCOC(=O)c1cn(-c2ccc(OC)c(F)c2CNC(=O)[C@H](C)NC(=O)[C@@H](CCc2ccccc2)NC(C)C)nn1 [Example 9.19]
21 | 10 to 40 | CC(C)N[C@H](CCc1ccccc1)C(=O)N[C@@H](C)C(=O)NCC1CNc2ccc(Cl)cc2O1 (stereo partly drawn) [Example 9.20]
22 | 10 to 40 | C[C@H](NC(=O)[C@@H](CCc1ccccc1)NS(C)(=O)=O)C(=O)NCc1cnc2[nH]cc(Cl)c2c1 [Example 9.21]
23 | 10 to 40 | CC(NC(=O)[C@@H](CCc1ccccc1)NC1CCOCC1)C(=O)NCc1cnc2[nH]cc(Cl)c2c1 (stereo partly drawn) [Example 9.22]
24 | 10 to 40 | CC(C)N[C@H](CCc1ccccc1)C(=O)N[C@@H](C)C(=O)NCc1cc2c(Cl)cccc2s1 [Example 9.23]
25 | 1 to 3 | C[C@H](NC(=O)[C@@H](CCc1ccccc1)NCc1ccccc1)C(=O)NCc1ccc2[nH]cc(Cl)c2c1 [Example 9.25]
26 | 3 to 10 | C[C@H](NC(=O)[C@@H](CCc1ccccc1)NCC(C)(C)C)C(=O)NCc1cnc2[nH]cc(Cl)c2c1 [Example 9.26]

Row | IC50 [µM] | Compound
27 | 3 to 10 | N[C@H](CCCCN1CCOCC1)C(=O)N1CC[C@H]1C(=O)NCc1ccc2[nH]cc(Cl)c2c1 [Example 10.19]
28 | 0.28 to 1 | CC(C)N[C@H](CCCCN1CCOCC1)C(=O)N1CC[C@H]1C(=O)NCc1ccc2[nH]cc(Cl)c2c1 [Example 10.20]
29 | 3 to 10 | CC(C)N[C@H](CCc1ccccc1)C(=O)N[C@@H](Cc1ccc(F)c(F)c1)C(=O)NCc1ccc2c(N)nccc2c1 [Example 12.12]
30 | 3 to 10 | CC(C)(C)OC(=O)N[C@H](CCc1ccccc1)C(=O)N1CCC[C@H]1C(=O)NCc1ccc2c(N)nccc2c1 [Example 17.01]
31 | 0.28 to 1 | Nc1nccc2cc(CNC(=O)[C@@H]3CCCN3C(=O)[C@H](N)CCc3ccccc3)ccc12 [Example 17.02]
32 | 1 to 3 | Nc1nccc2cc(CNC(=O)[C@@H]3CCCCN3C(=O)[C@H](N)CCc3ccccc3)ccc12 [Example 17.03]
33 | 3 to 10 | Nc1nccc2cc(CNC(=O)[C@@H]3CCCN(C(=O)[C@H](N)CCc4ccccc4)C3)ccc12 [Example 17.04]
34 | 1 to 3 | CCC(C)[C@@H](N)C(=O)N[C@@H](Cc1cccc2ccccc12)C(=O)NCc1ccc2c(N)nccc2c1 (stereo partly drawn) [Example 18.101]
35 | 1 to 3 | Nc1nccc2cc(CNC(=O)CNC(=O)[C@@H](CCc3ccccc3)NS(=O)(=O)Cc3ccccc3)ccc12 [Example 18.102]
36 | 10 to 40 | CCC(C)[C@H](C(=O)NCC(=O)NCc1ccc2c(N)nccc2c1)N(C)C (stereo partly drawn) [Example 18.103]
37 | 1 to 3 | CN(C)[C@H](CCc1ccccc1)C(=O)NCC(=O)NCc1ccc2c(N)nccc2c1 [Example 18.104]
38 | 10 to 40 | COc1ccc(OCCC(=O)N[C@@H](Cc2ccc(F)c(F)c2)C(=O)NCc2ccc3c(N)nccc3c2)cc1 [Example 20.01]
39 | 10 to 40 | Nc1nccc2cc(CNC(=O)[C@H](Cc3ccc(F)c(F)c3)NC(=O)COc3cccnc3)ccc12 [Example 20.02]
40 | 10 to 40 | Cc1ccnn1CCC(=O)N[C@@H](Cc1ccc(F)c(F)c1)C(=O)NCc1ccc2c(N)nccc2c1 [Example 20.03]
41 | 10 to 40 | CCOCCC(=O)N[C@@H](Cc1ccc(F)c(F)c1)C(=O)NCc1ccc2c(N)nccc2c1 [Example 20.04]
42 | 10 to 40 | Nc1nccc2cc(CNC(=O)[C@H](Cc3ccc(F)c(F)c3)NC(=O)CCn3cnc4ccccc43)ccc12 [Example 20.05]
43 | 10 to 40 | Cc1nc2ccccc2n1CCC(=O)N[C@@H](Cc1ccc(F)c(F)c1)C(=O)NCc1ccc2c(N)nccc2c1 [Example 20.06]
44 | 10 to 40 | Nc1nccc2cc(CNC(=O)[C@H](Cc3ccc(F)c(F)c3)NC(=O)CCn3cncn3)ccc12 [Example 20.07]
45 | 10 to 40 | Cc1nn(C)c(C)c1CCC(=O)N[C@@H](Cc1ccc(F)c(F)c1)C(=O)NCc1ccc2c(N)nccc2c1 [Example 20.08]
46 | 10 to 40 | Nc1nccc2cc(CNC(=O)[C@H](Cc3ccc(F)c(F)c3)NC(=O)CCNC(=O)c3ccc(F)cc3)ccc12 [Example 20.09]
47 | 10 to 40 | Nc1nccc2cc(CNC(=O)[C@H](Cc3ccc(F)c(F)c3)NC(=O)CCc3[nH]nc4c3CCCC4)ccc12 [Example 20.10]
48 | 10 to 40 | Nc1nccc2cc(CNC(=O)[C@@H](N)Cc3csc4ccccc34)ccc12 [Example 24.01]
49 | 10 to 40 | Nc1nccc2cc(CNC(=O)[C@@H](N)Cc3cccc(F)c3)ccc12 [Example 24.02]
50 | 10 to 40 | Nc1nccc2cc(CNC(=O)C[C@@H](N)Cc3ccccc3)ccc12 [Example 24.03]
51 | 10 to 40 | Cc1ccc2cc(C(=O)N3CCC(C(=O)NCc4ccc5c(N)nccc5c4)C3)ccc2n1 (stereo not drawn) [Example 32.01]
